Data as given in patent US6562814B2, “3-thioxo-[1,2,4]-oxadiazinan-5-one derivatives” (Wyeth, priority 2000, dated 2003).

Tests used:
serum HDL cholesterol = experiment: HDL cholesterol determination in cholesterol/cholic acid-fed rats; assay type: in vivo, Male Sprague-Dawley rats; details: Rattus norvegicus, feed or water, 192 h, 8 days, rats fed chow with 0.25% cholic acid and 1.0% cholesterol, FPLC, read-out: HDL Cholesterol Level Increase (%); for change in vivo at 100 mg/kg/day: dose 100 mg/kg/day in diet
Description: The ability of the compounds of this invention to increase blood serum HDL levels was established by the following standard experimental procedure for determination of HDL cholesterol:
Male Sprague-Dawley rats weighing 200-225 g were housed two per cage and fed Purina Rodent Chow Special Mix 5001-S supplemented with 0.25% cholic acid and 1.0% cholesterol and water ad libitum for 8 days. Each test substance is administered to a group of six rats fed the same diet with the test diet mixed in as 0.005-0.1% of the total diet. Body weight and food consumption were recorded prior to diet administration and at termination. Typical doses of the test substances were 5-100 mg/kg/day.
At termination, blood was collected from anesthetized rats and the serum was separated by centrifugation. Total serum cholesterol was assayed using the Sigma Diagnostics enzymatic kit for the determination of cholesterol, Procedure No. 352, modified for use with ninety-six well microtiter plates. After reconstitution with water the reagent contains 300 U/I cholesterol oxidase, 100 U/I cholesterol esterase, 1000 U/I horse radish peroxidase, 0.3 mmoles/l 4-aminoantipyrine and 30.0 mmoles/l p-hydroxybenzenesulfonate in a pH 6.5 buffer. In the reaction cholesterol was oxidized to produce hydrogen peroxide which was used to form a quinoneimine dye. The concentration of dye formed was measured spectrophotometrically by absorbence at 490 nm after incubation at 25° C. for 30 minutes. The concentration of cholesterol was determined for each serum sample relative to a commercial standard from Sigma.
HDL cholesterol concentrations in serum are determined by separation of lipoprotein classes by fast protein liquid chromatography (FPLC) by a modification of the method of Kieft et al., J. Lipid Res., 32 (1991) 859-866. 25 ul of serum was injected onto Superose 12 and Superose 6 (Pharmacia), in series, with a column buffer of 0.05 M Tris (2-amino-2-hydroxymethyl-1,3-propanediol) and 0.15 M sodium chloride at a flow rate of 0.5 ml/min. The eluted sample was mixed on line with Boehringer-Mannheim cholesterol reagent pumped at 0.2 ml/min. The combined eluents are mixed and incubated on line through a knitted coil (Applied Biosciences) maintained at a temperature of 45C. The eluent was monitored by measuring absorbence at 490 nm and gives a continuous absorbence signal proportional to the cholesterol concentration. The relative concentration of each lipoprotein class was calculated as the percent of total absorbence. HDL cholesterol concentration, in serum, was calculated as the percent of total cholesterol as determined by FPLC multiplied by the total serum cholesterol concentration.
Test compounds were administered at the specified dose. Each test substance was administered to a group of six rats. The duration of treatment was eight days.

SMILES	melting point	change in vivo at 100 mg/kg/day (serum HDL cholesterol)	change in vivo at 85 mg/kg/day (serum HDL cholesterol; dose 85 mg/kg/day in diet)
CC(C)c1ccccc1N1C(=O)CON(C)C1=S [Example 8, 4-(2-Isopropylphenyl)-2-methyl-3-thioxo-[1,2,4]oxadiazinan-5-one]	98 to 101 °C	95%	–
CN1OCC(=O)N(c2ccc(Oc3ccccc3)cc2)C1=S [Example 10, 4-(4-Phenoxyphenyl)-2-methyl-3-thioxo-[1,2,4]oxadiazinan-5-one]	159 to 160 °C	102%	–
CN1OCC(=O)N(c2ccc3c(c2)CCC3)C1=S [Example 5, 4-Indan-5-yl-2-methyl-3-thioxo-[1,2,4]oxadiazinan-5-one]	135 to 137 °C	192%	–
CN1OCC(=O)N(c2ccc(C(C)(C)C)cc2)C1=S [Example 9, 4-(4-tert-Butylphenyl)-2-methyl-3-thioxo-[1,2,4]oxadiazinan-5-one]	168 to 170 °C	170%	–
Cc1cccc(Cl)c1N1C(=O)CON(C)C1=S [Example 7, 4-(2-Chloro-6-methylphenyl)-2-methyl-3-thioxo-[1,2,4]oxadiazinan-5-one]	176 to 178 °C	100%	–
CN1OCC(=O)N(C(c2ccccc2)c2ccccc2)C1=S [Example 2, 4-Benzhydryl-2-methyl-3-thioxo-[1,2,4]oxadiazinan-5-one]	152 to 154 °C	60%	–

The next lines start with results.

melting point	SMILES	change in vivo at 100 mg/kg/day (serum HDL cholesterol)	change in vivo at 85 mg/kg/day (serum HDL cholesterol; dose 85 mg/kg/day in diet)
189 to 191 °C	COc1ccc(Cl)cc1N1C(=O)CON(C)C1=S [Example 11, 4-(5-Chloro-2-methoxyphenyl)-2-methyl-3-thioxo-[1,2,4]oxadiazinan-5-one]	78%	–
119 to 121 °C	CCN1OCC(=O)N(c2cc(Cl)ccc2C)C1=S [Example 4, 4-(5-Chloro-2-methylphenyl)-2-ethyl-3-thioxo-[1,2,4]oxadiazinan-5-one]	–	136%
104 to 106 °C	Cc1ccc(C)c(N2C(=O)CON(C)C2=S)c1 [Example 6, 4-(2,5-Dimethylphenyl)-2-methyl-3-thioxo-[1,2,4]oxadiazinan-5-one]	72%	–
100 to 102 °C	Cc1ccc(Cl)cc1N1C(=O)CON(C)C1=S [Example 3, 4-(5-Chloro-2-methylphenyl)-2-methyl-3-thioxo-[1,2,4]oxadiazinan-5-one]	236%	–
141 to 143 °C	Cc1cc(Cl)ccc1N1C(=O)CON(C)C1=S [Example 1, 4-(4-Chloro-2-methylphenyl)-2-methyl-3-thioxo-[1,2,4]oxadiazinan-5-one]	221%	–
